The record followed here is EP0877740B1, “THIOL DERIVATIVES WITH METALLOPEPTIDASE INHIBITORY ACTIVITY” (ZAMBON GROUP S.p.A., priority 1995, dated 1997).

This assay deals with T1, ACE (Oryctolagus cuniculus, UniProt P12822).
T1 construct: ACE (250 mU/ml purified by lung rabbit, EC 3.4.15.1 SIGMA); purchased SIGMA; host or cells: rabbit lung (tissue-purified)
T1 sequence (P12822 34-1310): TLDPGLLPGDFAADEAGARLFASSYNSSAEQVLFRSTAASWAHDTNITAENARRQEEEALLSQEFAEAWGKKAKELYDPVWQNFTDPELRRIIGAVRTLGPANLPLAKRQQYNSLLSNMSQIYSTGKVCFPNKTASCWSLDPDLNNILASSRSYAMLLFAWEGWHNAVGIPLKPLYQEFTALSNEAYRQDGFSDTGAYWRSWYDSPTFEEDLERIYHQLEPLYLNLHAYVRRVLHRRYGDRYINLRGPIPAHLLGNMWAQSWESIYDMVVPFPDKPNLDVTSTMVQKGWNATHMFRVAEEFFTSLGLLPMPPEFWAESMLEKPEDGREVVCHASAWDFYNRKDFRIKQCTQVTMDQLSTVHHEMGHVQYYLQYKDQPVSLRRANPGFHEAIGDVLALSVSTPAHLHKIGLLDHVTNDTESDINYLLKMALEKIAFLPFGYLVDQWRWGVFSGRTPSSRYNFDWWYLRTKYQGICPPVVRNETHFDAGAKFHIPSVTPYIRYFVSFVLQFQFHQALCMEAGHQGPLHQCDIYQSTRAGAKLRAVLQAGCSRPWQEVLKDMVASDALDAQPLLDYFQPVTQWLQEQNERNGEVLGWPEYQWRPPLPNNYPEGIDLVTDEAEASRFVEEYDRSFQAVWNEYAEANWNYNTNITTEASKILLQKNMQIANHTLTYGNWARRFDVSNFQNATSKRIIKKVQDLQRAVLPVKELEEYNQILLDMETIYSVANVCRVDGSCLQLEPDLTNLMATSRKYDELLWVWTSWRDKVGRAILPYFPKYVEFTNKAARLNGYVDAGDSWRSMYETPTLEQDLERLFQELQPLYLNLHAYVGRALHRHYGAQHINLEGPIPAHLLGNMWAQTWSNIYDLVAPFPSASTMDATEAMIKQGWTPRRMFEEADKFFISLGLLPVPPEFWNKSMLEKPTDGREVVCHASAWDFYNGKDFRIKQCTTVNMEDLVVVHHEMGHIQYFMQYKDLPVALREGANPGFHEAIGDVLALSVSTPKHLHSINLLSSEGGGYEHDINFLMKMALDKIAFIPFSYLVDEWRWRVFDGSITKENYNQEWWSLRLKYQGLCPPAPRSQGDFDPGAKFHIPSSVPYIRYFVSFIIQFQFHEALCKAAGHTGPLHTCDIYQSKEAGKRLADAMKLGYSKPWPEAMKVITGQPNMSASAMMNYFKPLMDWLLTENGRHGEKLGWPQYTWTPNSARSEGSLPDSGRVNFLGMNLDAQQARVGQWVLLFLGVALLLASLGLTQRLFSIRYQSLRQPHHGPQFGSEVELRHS
Briefly: In vitro ACE-inhibitory activity (FAPGG substrate, spectrophotometric). The assay is classed as biochemical. Conditions: ACE purified by lung rabbit, FAPGG 0.8 mM, 37°C. The method, then:
[…] of ACE (250 mU/ml purified by lung rabbit, EC 3.4.15.1 SIGMA) were preincubated with 50 µl of the compound of formula I or of the reference compound or related vehicle in thermostated cuvettes at 37°C.
The reaction was started by adding furylacryloylphenylalanylglycylglycine 0.8 mM (FAPGG-SIGMA).
Contemporaneously, by using a Beckman DU-50 spectrophotometer provided with a program for calculating delta A/minutes and regression coefficients of the enzyme kinetics curves, the absorbance at 340 nm was recorded in continuo for 5 minutes.
The percentage of the enzyme inhibition in the preparations treated with the compounds of formula I or with the comparative compounds with respect to the untreated preparations was expressed as IC50 (nM) value.

Molecules are shown by their SMILES.

A word on the IC50: it is the midpoint of a concentration-inhibition curve. Read a low IC50 as higher potency. In turn, `O=C(N[C@@H](Cc1ccc(-c2nccs2)cc1)C(=O)O)[C@@H](CS)Cc1ccccc1` [Compound 16, N-[(2S)-3-mercapto-2-phenylmethylpropionyl]-4-(2-thiazolyl)-L-phenylalanine] yielded an IC50 of 3.2 nM.
